# According to patent US4088755A, “Medicament for remedying schizophrenia” (priority 1975, dated 1978):
# Assays:
# [1] = tested on: patients with schizophrenia; assay: Clinical data: case reports (Cases 1 to 6) of schizophrenic patients on neuroleptics, L-Dopa and TRH; assay type: in vivo, human
# [2] = tested on: patients with schizophrenia; assay: as above; assay type: in vivo, human; remark: listed apart in the source
# Protocol: The following clinical data as well as Examples are only for illustrative purposes and are not at all intended to limit or to restrict the scope of the invention.
# On April 14, they came back to their home town and, on the following day, was admitted to hospital.
# On July 10, TRH tartrate monohydrate 4 mg. (2.73 mg. in terms of free TRH) per day (2 mg. each in the morning and night) began to be administered orally in combination with thioridazine, 50 mg. per day, and trihexyphenydyl 6 mg. per day. […] On July 31, the administration of TRH was stopped.
# In February 1961, the patient was admitted for the first time to Y hospital in a state of catatonic stupor. After receiving electroshock therapy and chlorpromazine, they were discharged from the hospital on April 19 of the same year. On May 26, 1966 they were again admitted to the same hospital this time in a state of catatonic excitement. […] Beginning on April 3, 1971, thioridazine, 300 mg. per day, and L-Dopa, 400 mg. daily, were added to the therapeutic regime. […] From the 9th day on, the dosage of L-Dopa was increased to 600 mg. daily. […] At the 19th week, the dosage of L-Dopa was reduced to 400 mg. and the drug was discontinued that week-end.
# Hospital therapy was started with chlorpromazine, 400 mg. per day, and spiperone, 1 mg. per day. […] Consequently, the dosage of chlorpromazine was raised to 500 mg. per day. […] Beginning on August 9, penfluridol, 20 to 40 mg. twice weekly, was added to the preceding regimen of chlorpromazine 500 mg. daily. On June 26, 1973, the dosage of chlorpromazine was reduced to 200 mg. per day. Shortly thereafter, L-Dopa, 100 mg. daily, was added to the regimen from July 5 on. The dosage of L-Dopa was then increased gradually up to 600 mg. per day and finally discontinued on August 30.
# On July 2, 1974, they were started on clocapramine, 75 mg. daily, to which TRH tartrate monohydrate, 4 mg. (2.73 mg. in terms of free TRH) daily, was orally added from July 29 on.
# [3] = tested on: psychotic patients / patients with schizophrenia; assay type: in vivo, human
# Source text: L-Pyroglutamyl-L-histidyl-L-prolinamide (thyrotropin-releasing hormone; hereinafter referred to as TRH) is a hypothalamic hormone which can be synthesized chemically and has been used as a diagnostic agent or as an antidepressant. […] It is known, however, that, although the onset of the effect of TRH on psychotic patients is very rapid, the duration of its effects is rather short. Thus, TRH alone cannot be a practical remedy for psychotic patients.
# On the other hand, according to the present invention, a deterioration of the patients considered to be caused by TRH in the combined use is negligible and, therefore, determination of the dose is very easy.
# Furthermore, although the effect of TRH on pyschotic patients is known to be transient, t therapeutic effects in accordance with the present invention last long even after withdrawal of TRH or its physiologically acceptable salts, alone or together with neuroleptics, which are administered to patients in combination. In this way, long lasting therapeutic effects, as well as the rapid onset of the effects are another excellent characteristic of this invention.
# [4] = tested on: psychotic patients / patients with schizophrenia; settings: cited from earlier work
smiles,measurement,setting,value
O=C(CCCN1CCC(O)(c2ccc(Cl)cc2)CC1)c1ccc(F)cc1 [Haloperidol],"Clinical outcome, Case 4, haloperidol","[1]; 4 mg daily initially, increased up to 100 mg",failed to elicit any appreciable symptomatic response
"N[C@@H](Cc1ccc(O)c(O)c1)C(=O)O [L-Dopa, L-3,4-dihydroxyphenylalanine]","Clinical outcome, Case 2, L-Dopa with thioridazine (1971)","[2]; person, L-Dopa 400-600 mg daily with thioridazine 300 to 100 mg per day, 19th week",had no morbid experience and appeared to have a clear insight
same,Side-effects of L-Dopa in combined use,"[3]; human, in vivo",an excessive does of L-Dopa results in the production of side-effects in the patients
same,Effect of L-Dopa in small doses with conventionally used neuroleptics,"[3]; schizophrenia, observed by the present inventors",marked improvement of the overall clinical picture in schizophrenia
same,"Clinical outcome, Case 3, L-Dopa with thioridazine",[1]; L-Dopa 300 mg daily with thioridazine 200 mg daily,their spontaneity increased to an extent greater than that achieved before
same,"Clinical outcome, Case 2, L-Dopa therapy (1973)","[1]; L-Dopa 100 up to 600 mg per day added to chlorpromazine 200 mg per day and penfluridol, autism and abulia persisted",His general clinical picture improved to a considerable extent
same,"Time condition remained the same after withdrawal of L-Dopa, Case 3",[1]; after about 5 months of usage with thioridazine,about 4 months
same,"Clinical outcome, Case 3, L-Dopa with chlorpromazine","[1]; person, L-Dopa 400 mg with chlorpromazine 300 mg per day, end of 3rd week",an appreciable improvement in their facial expression
same,"Side effects, Case 3, L-Dopa 1000 mg daily",[1]; with chlorpromazine 300 mg per day,they seemed irritated to some extent and complained of sleeping trouble
same,"Side effects, Case 3, L-Dopa 1200 mg","[1]; with chlorpromazine 300 mg per day, led to discontinuation",appearance of auditory hallucination
"NC(=O)[C@@H]1CCCN1C(=O)[C@H](Cc1cnc[nH]1)NC(=O)[C@@H]1CCC(=O)N1 [TRH, L-Pyroglutamyl-L-histidyl-L-prolinamide]","Time remission maintained after withdrawal of TRH, Case 2","[2]; on clocapramine 75 mg daily alone, remission maintained most of the time",4 months
same,Effect of TRH alone in patients with schizophrenia,"[4]; The Lancet, July 7, 1973, pages 43 and 44","produce emotional warmth, lucidity of though and accessibility of psychotherapy"
same,Duration of effects of TRH alone,[4]; psychotic patients,rather short
same,Onset of effect of TRH alone,[4]; psychotic patients,very rapid
same,Deterioration of the patients considered to be caused by TRH in the combined use,"[3]; human, in vivo",negligible
same,"Persistence of remission after withdrawal of TRH, Case 1","[1]; TRH stopped July 31, other drugs continued",His state of remission has been maintained until now
same,"Persistence of improvement after withdrawal of TRH, Case 5",[1]; TRH stopped on 15th day,the improvement has continued even after withdrawal of TRH
same,"Clinical outcome, Case 3, TRH with thioridazine","[1]; TRH tartrate monohydrate 8 mg daily (5.46 mg free TRH) orally with thioridazine 200 mg daily for two weeks, from 4th day",Their participation in work and recreational activities became more positive and their action became more agile than when they were placed on L-Dopa
same,"Onset of subjective effect, Case 6","[1]; i.v. TRH, patient felt light in the head and free from depressed feeling",One hour after the first injection
same,"Persistence of effect of TRH therapy after discontinuation, Case 3",[1]; on thioridazine alone,two
same,"Clinical outcome, Case 6, intravenous TRH with neuroleptics","[1]; person, 730 μg TRH tartrate monohydrate (500 μg free TRH)/day i.v., 5 injections, with perphenazine 12 mg/day, diazepam 10 mg/day, vegetamim B 1 tablet/day",Remarkable improvement in the symptoms was recognized subjectively as well as objectively
"CN(C)CCCN1c2ccccc2Sc2ccc(Cl)cc21 [chlorpromazine, Chlorpromazine]","Clinical outcome, Case 2, chlorpromazine with spiperone","[2]; chlorpromazine 400 mg per day and spiperone 1 mg per day, other symptoms virtually unaffected",their negativism and psychomotor excitement seemed to disappear almost completely
same,"Clinical outcome, Case 4, oral chlorpromazine","[1]; person, initial 100 mg daily, gradually increasing dose",without result
